Laboratory results published in ChEMBL document CHEMBL2021763, “Solution NMR analysis of the binding mechanism of DIVS6 model peptides of voltage-gated sodium channels and the lipid soluble alkaloid veratridine” (Bioorg Med Chem, 2012).

How the values were obtained:
[1] = Toxicity in ip dosed mouse; format: organism-based; conditions: in vivo
[2] = Binding affinity to transmembrane model peptide-1 of domain 4 segment 6 of rat skeletal muscle Nav1.4 by Marquardt and Levenberg algorithm analysis
[3] = Binding affinity to transmembrane model peptide-2 of domain 4 segment 6 of rat skeletal muscle Nav1.4 by Marquardt and Levenberg algorithm analysis

| Structure (SMILES) | LD50 [1] [mg/kg] | Kd [2] [µM] | Kd [3] [µM] |
| --- | --- | --- | --- |
| C[C@H]1CC[C@@H]2N(C1)C[C@@H]1[C@](O)([C@@H](O)C[C@@]3(O)[C@@H]4CC[C@@H]5[C@]6(O)O[C@@]4(C[C@@]13O)[C@@]5(C)CC[C@@H]6O)[C@]2(C)O [VERACEVINE] | > 100 | 890 | – |
| COc1ccc(C(=O)O[C@H]2CC[C@@]3(C)[C@@H]4CC[C@H]5[C@]6(O)C[C@H](O)[C@@]7(O)[C@@H](CN8C[C@@H](C)CC[C@H]8[C@@]7(C)O)[C@]6(O)C[C@@]53O[C@]24O)cc1OC [VERATRIDINE] | 9 | 1400 | 490 |
